In PMC10619477 (RSC Advances, 2023):
Marks after values point to notes of the source that are not given here.

Experiments:
[1] = DPPH radical scavenging assay; assay type: biochemical; conditions: for IC50: read-out: DPPH (IC50), mean ± SEM, three determinations; for DPPH inhibiting rate: in the presence of 0.5 mM compounds
[2] = ABTS radical cationic decolorization assay; assay type: biochemical; conditions: read-out: ABTS (IC50); concentration that inhibits 50% of free radicals, mean ± SEM
in vitro = conditions: PAMPA
[3] = from PAMPA-BBB Pe
SH-SY5Y cells = conditions: MTT; for Cytotoxicity on SH-SY5Y cells (in words): 0–80 μM
[4] = system: intracellular GSH in H2O2-injured SY5Y cells; assay: Total glutathione; assay type: cell-based, Human; conditions: pretreatment with 10 μM, 100 μM H2O2
[5] = system: intracellular ROS in H2O2-injured SY5Y cells; assay: Intracellular ROS levels; assay type: cell-based, Human; conditions: 0.1, 1 or 10 μM, 100 μM H2O2 24 h, DCFH-DA
[6] = system: SH-SY5Y cells exposed to 100 μM H2O2; assay: Protection of SH-SY5Y cells from H2O2-induced oxidative damage; assay type: cell-based, Human
[7] = system: MMP in H2O2-incubated SY5Y cells; assay: Mitochondrial membrane potential assay; conditions: 10 μM, 100 μM H2O2 24 h, JC-1

Compound	IC50 [1] [µM]	IC50 [2] [µM]	Papp at 16 h, 100 mg mL^−1 (in vitro) [×10⁻⁶ cm/s]	Prediction (penetration into CNS) [3]	further results
2-(3,4-Dimethoxyphenyl)-N-octylacetamide [Compound 3d]	67.6 ± 4.74	24.3 ± 3.62			
COc1cc(CNC(=O)CCCC/C=C/C(C)C)ccc1O [Compound 3a, capsaicin, reference compound]	52.1 ± 3.21	16.9 ± 1.64			
COc1cc(CNC(=O)CCCCCCC(C)C)ccc1O [Compound 3b, Dihydrocapsaicin]	50.9 ± 4.08	11.3 ± 1.55	5.96 ± 0.78		
CCCCCCC(=O)NCc1ccc(OC)c(OC)c1 [Compound 3e, N-(3,4-Dimethoxybenzyl)heptanamide]			10.8 ± 1.03	CNS+ (CNS+ is predicted as high BBB permeation with Pe (×10^−6 cm s^−1) > 4.33)	DPPH radical scavenging activity (in words) [1]: little radical scavenging activities; DPPH inhibiting rate [1]: 27.33 ± 2.88% ^c
CCCCCCNC(=O)Cc1ccc(O)c(O)c1 [Compound 3h, 2-(3,4-Dihydroxyphenyl)-N-hexylacetamide]	4.49 ± 0.74	18.6 ± 3.03	7.68 ± 0.47	CNS+ (CNS+ is predicted as high BBB permeation with Pe (×10^−6 cm s^−1) > 4.33)	
CCCCCCCC(=O)NCc1ccc(OC)c(OC)c1 [Compound 3j, N-(3,4-Dimethoxybenzyl)octanamide]					DPPH radical scavenging activity (in words) [1]: little radical scavenging activities; DPPH inhibiting rate [1]: 22.72 ± 5.47% ^c
CCCCCCCC(=O)NCc1ccc(O)c(O)c1 [Compound 3k, N-(3,4-Dihydroxybenzyl)octanamide]	5.06 ± 1.34	10.6 ± 1.28	9.23 ± 0.57	CNS+ (CNS+ is predicted as high BBB permeation with Pe (×10^−6 cm s^−1) > 4.33)	H2O2-induced decrease of intracellular GSH (in words) [4]: blocked; intracellular ROS fluorescence intensity (in words) [5]: decreased gradually; cell viability under H2O2 (in words) ([6]; 0.1, 1 or 10 μM pretreatment, 100 μM H2O2): increased dose-dependently; viability at 10 µM ([6]; Homo sapiens, SH-SY5Y, read-out: cell viability): 90 ± 5.5%; Cytotoxicity on SH-SY5Y cells (in words) (SH-SY5Y cells): little toxicity; H2O2-induced reduction of MMP (in words) [7]: blocked significantly
CCCCCCCCC(=O)NCc1ccc(O)c(OC)c1 [Compound 3l, N-(4-Hydroxy-3-methoxybenzyl)nonanamide]	27.2 ± 3.47	44.2 ± 4.65			
CCCCCCCCC(=O)NCc1ccc(OC)c(OC)c1 [Compound 3m, N-(3,4-Dimethoxybenzyl)nonanamide]			10.6 ± 0.38	CNS+ (CNS+ is predicted as high BBB permeation with Pe (×10^−6 cm s^−1) > 4.33)	DPPH radical scavenging activity (in words) [1]: little radical scavenging activities; DPPH inhibiting rate [1]: 18.56 ± 2.33% ^c
CCCCCCCCC(=O)NCc1ccc(O)c(O)c1 [Compound 3n, N-(3,4-Dihydroxybenzyl) nonanamide]	5.91 ± 0.77	22.7 ± 2.34	10.1 ± 0.34	CNS+ (CNS+ is predicted as high BBB permeation with Pe (×10^−6 cm s^−1) > 4.33)	Cytotoxicity on SH-SY5Y cells (in words) (SH-SY5Y cells): strong growth inhibition
CCCCCCCCNC(=O)Cc1ccc(OC)c(OC)c1 [Compound 3p, 2-(3,4-Dimethoxyphenyl)-N-octylacetamide]					DPPH radical scavenging activity (in words) [1]: little radical scavenging activities; DPPH inhibiting rate [1]: 30.48 ± 3.44% ^c
CCCCCCCCNC(=O)Cc1ccc(O)c(O)c1 [Compound 3q, 2-(3,4-Dihydroxyphenyl)-N-octylacetamide]	4.14 ± 1.09	21.6 ± 3.69	6.54 ± 0.81	CNS+ (CNS+ is predicted as high BBB permeation with Pe (×10^−6 cm s^−1) > 4.33)	Cytotoxicity on SH-SY5Y cells (in words) (SH-SY5Y cells): strong growth inhibition
OO [Compound H2O2, H2O2, reference compound]					cell viability of H2O2-treated SY5Y cells ([6]; 100 μM H2O2 alone, compared with control (100%)): 63.3 ± 4.5%; inhibition in SH-SY5Y cells (SH-SY5Y cells; H2O2 at 100 μM): 38.1 ± 7.6%; effect on SH-SY5Y cell viability (in words) (SH-SY5Y cells; H2O2 at 25 and 50 μM): no apparent inhibitory or promotive effects
C[C@]12CC[C@@H]3c4ccc(O)cc4CC[C@H]3[C@@H]1CC[C@@H]2O [Estradiol, reference compound]			13.2 ± 0.51		

More lines, main results first:

IC50 [1] [µM]	IC50 [2] [µM]	Papp at 16 h, 100 mg mL^−1 (in vitro) [×10⁻⁶ cm/s]	Compound	Prediction (penetration into CNS) [3]	further results
		0.79 ± 0.1	Cn1c(=O)c2c(ncn2C)n(C)c1=O [Caffeine, reference compound]		
7.33 ± 0.98	16.8 ± 2.1	8.45 ± 0.57	CC(C)CCCCCCC(=O)NCc1ccc(O)c(O)c1 [Compound 3c, N-(3,4-Dihydroxybenzyl)-8-methylnonanamide]	CNS+ (CNS+ is predicted as high BBB permeation with Pe (×10^−6 cm s^−1) > 4.33)	Cytotoxicity on SH-SY5Y cells (in words) (SH-SY5Y cells): strong growth inhibition
139 ± 6.89	13.1 ± 1.47	6.24 ± 0.98	CCCCCCNC(=O)Cc1ccc(O)c(OC)c1 [Compound 3f, N-Hexyl-2-(4-hydroxy-3-methoxyphenyl)acetamide]	CNS+ (CNS+ is predicted as high BBB permeation with Pe (×10^−6 cm s^−1) > 4.33)	
		11.2 ± 0.68	CCCCCCNC(=O)Cc1ccc(OC)c(OC)c1 [Compound 3g, 2-(3,4-Dimethoxyphenyl)-N-hexylacetamide]	CNS+ (CNS+ is predicted as high BBB permeation with Pe (×10^−6 cm s^−1) > 4.33)	DPPH radical scavenging activity (in words) [1]: little radical scavenging activities; DPPH inhibiting rate [1]: 12.76 ± 2.54% ^c
27.9 ± 4.55	13.6 ± 2.9		CCCCCCCC(=O)NCc1ccc(O)c(OC)c1 [Compound 3i, N-(4-Hydroxy-3-methoxybenzyl) octanamide]		
185 ± 9.86	30.9 ± 2.79		CCCCCCCCNC(=O)Cc1ccc(O)c(OC)c1 [Compound 3o, 2-(4-Hydroxy-3-methoxyphenyl)-N-octylacetamide]		
8.7 ± 1.75	13.8 ± 2.87		O=c1c(O)c(-c2ccc(O)c(O)c2)oc2cc(O)cc(O)c12 [Quercetin, reference compound]		
